In brackets after ≈: the same amount, converted by molar mass.
Tests used:
[1] = cited from earlier work
AsPC-1 cells = assay: In vitro MTT cytotoxicity assay; format: cell-based, human; settings: 72 h
Description: (§1) Human pancreatic cancer cell lines MiaPaCa-2 and AsPC-1 were used. Both cell lines were maintained in Dulbecco's Modified Eagle's Medium (DMEM; Invitrogen), supplemented with 5% FBS, 2 mmol/L glutamine, 50 units/mL penicillin, and 50 μg/mL streptomycin under standard culture conditions. The cell lines have been tested and authenticated in the core facility of Applied Genomics Technology Center at Wayne State University. The method used for testing was short tandem repeat profiling using the PowerPlex 16 System from Promega.
(§2) The in vitro cytotoxicity of free CDF, CUR, SMA and micelles was evaluated by MTT cytotoxicity assay based on measurement of the activity of enzymes present in live cells that reduces MTT to give a purple color. Cells were seeded in a 96-well culture plate and the formulations were applied 24 h after seeding as freshly prepared solutions in PBS (pH 7.4) using between 100 to 1000 nM concentrations of the test agents. MTT (0.5 mg/ml) was added at the end of treatment (72 h) and plates incubated at 37° C. for 2 h, followed by replacement of media with DMSO at room temperature for 30 min and absorbance were measured at 590 nm using Ultra Multi-functional Micro plate Reader (TECAN).

MiaPaCa-2 cells [2] = assay: In vitro MTT cytotoxicity assay; format: cell-based, human; settings: 72 h
Description: as §1, §2

MiaPaCa-2 cells [3] = assay: MTT assay before and after HA receptor blockade; format: cell-based, human; settings: MiaPaCa-2, 72 h
Excerpt: FIG. 13(c) and FIG. 13(d) show comparisons of percent cell viability of different formulations before and after HA receptor blockade.

[4] = tested on: CD44+ cells (CD44+/CD133+/EpCAM+ CSLCs from MiaPaCa-2); assay: MTT assay on CD44+ versus CD44− pancreatic cancer cells; format: cell-based, human; settings: 72 h
Description: The CSLCs (triple-marker positive; CD44+/CD133+/EpCAM+) and triple-marker negative (CD44−/CD133−/EpCAM−) cells were isolated from human pancreatic MiaPaCa-2 cells, by fluorescence-activated cell sorting (FACS) technique. The postsorted cells were subsequently maintained in 5% FBS-DMEM media at 37° C. under standard culture conditions.
Triple-marker positive (CD44+/CD133+/EpCAM+) CSLCs and triple-marker-negative (CD44−/CD133−/EpCAM−) cells were isolated and cultured as described in above and seeded in a 96-well culture plate, and subsequently free CDF, HA-SMA, nontargeted (SMA-CDF), and targeted (HA-SMA-CDF) nanomicelles were applied 24 h after seeding as a freshly prepared solution in DMSO diluted with PBS (pH 7.4) at between 250 to 750 nM concentration, MTT reagent was added and the absorbance measured at 595 nm using an Ultramultifunctional Microplate Reader ([…], Switzerland), and percent cell viability was determined by comparing the values with appropriate controls.

CD44 = assay: Western blot analysis of CD44 expression; format: cell-based, human; settings: 250 nM, 48 h, triple marker positive CSLCs, versus untreated and HA-SMA controls
Description: Triple marker positive CSLCs derived from MiaPaCa-2 were plated and allowed to attach for 36 h. CDF loaded formulations were directly added to cell cultures at 250 nM concentration and incubated for 48 h. Untreated (control) and HASMA treated (control) cells were incubated in the medium containing an equivalent concentration of PBS. After incubation, the cells were collected in PBS, and whole cell lysate was prepared by suspending the cells in 150 μL of lysis buffer [1 mol/L Tris-HCl (pH 7.5), 150 mmol/L NaCl, 1 mmol/L EDTA, 0.1% Triton X-100, 0.1 mmol/L sodium orthovanadate, 1 mmol/L phenylmethylsulfonyl fluoride ([…]), and 2 μg/mL leupeptin and 2μg,/mL aprotinin] lysed, and centrifuged. The cells were disrupted by sonication (Branson Ultrasonics, Danbury, Conn.), and the total protein content was determined by bicinchoninic acid (BCA) assay. For immunoblotting, 30 μg of total proteins was separated on SDS-PAGE, electro-transferred onto nitrocellulose membranes, and probed with specific antibodies ([…], MA). Detection of specific proteins was carried out with an enhanced chemiluminescence western blotting kit according to the manufacturer's instructions (Life Technologies, Waltham, Mass.).

Row | SMILES | water solubility (estimated) [1] [µM] | IC50 (AsPC-1 cells) [nM] | cell viability (MiaPaCa-2 cells [2]; 1000 nM CDF equivalent concentration, MiaPaCa-2) [%] | anticancer activity compared to free CMN (in words) (MiaPaCa-2 cells [2]; MTT) | IC50 (MiaPaCa-2 cells [2]; MiaPaCa-2 cells) [nM] | IC50 (MiaPaCa-2 cells [3]; after receptor blockade using free soluble HA) [nM] | IC50 (MiaPaCa-2 cells [3]; before the blockade of HA receptors) [nM] | IC50 [4] [nM] | expression of CD44 levels (in words) (CD44) | water solubility ([1]; free form) [µg/mL]
1 | CC(=O)O[C@@]12CO[C@@H]1C[C@H](O)[C@@]1(C)C(=O)[C@H](O)C3=C(C)[C@@H](OC(=O)[C@H](O)[C@@H](NC(=O)OC(C)(C)C)c4ccccc4)C[C@@](O)([C@@H](OC(=O)c4ccccc4)[C@H]21)C3(C)C [Docetaxel, docetaxel] | 10 to 20 | – | – | – | – | – | – | – | – | –
2 | COc1cc(/C=C/C(=O)C(=Cc2ccc(F)c(F)c2)C(=O)/C=C/c2ccc(O)c(OC)c2)ccc1O [CDF, curcumin difluorinated] | – | 810 ± 1.51 | 28.47±2.29 | significantly improved anticancer activity | 400 ± 4.53 | 473 ± 8.69 | 465 ± 7.34 | 410 ± 3.64 | marked reduction | 0.6 (≈ 1.22 µM)
3 | CC(=O)O[C@H]1C(=O)[C@@]2(C)[C@H]([C@H](OC(=O)c3ccccc3)[C@]3(O)C[C@H](OC(=O)[C@H](O)[C@@H](NC(=O)c4ccccc4)c4ccccc4)C(C)=C1C3(C)C)[C@]1(OC(C)=O)CO[C@@H]1C[C@@H]2O [Paclitaxel, paclitaxel] | 10 to 20 | – | – | – | – | – | – | – | – | –

— patent publication US20180344637A1, “WATER SOLUBLE MICELLAR DRUG DELIVERY AGENTS” (Wayne State University, priority 2015, published 2018)
